PubChem BioAssay AID248 (DTP/NCI, 2004)
“And” between values parts separate entries of the source, which are not always exact repeats. Identical values can stand only once. Inconclusive results and toxic doses are left out. Cut-off read from the data, not from the text of the source: active = T/C of 150% or more; inactive = T/C below 125%.

Test system: L1210 leukemia ip in BDF1 mice, survival T/C
Assay: NCI In Vivo Anticancer Drug Screen. Data for tumor model L1210 Leukemia (intraperitoneal) in B6D2F1 (BDF1) mice
Settings: endpoint: mean survival time, higher = longer survival
Outline: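 Mice bearing the transplanted tumor received compound or vehicle. Survival of the treated group was divided by that of the vehicle-treated control group to give the ratio.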

[1] = dose: 100.0 mg/kg/injection, schedule: Q01DX009 (ip), vehicle: saline with Tween-80
[2] = dose: 100.0 mg/kg/injection, schedule: Q04DX003 (ip), vehicle: saline with Tween-80
[3] = dose: 200.0 mg/kg/injection, schedule: Q01DX009 (ip), vehicle: saline with Tween-80
[4] = dose: 200.0 mg/kg/injection, schedule: Q04DX003 (ip), vehicle: saline with Tween-80
[5] = dose: 400.0 mg/kg/injection, schedule: Q01DX009 (ip), vehicle: saline with Tween-80
[6] = dose: 400.0 mg/kg/injection, schedule: Q04DX003 (ip), vehicle: saline with Tween-80
[7] = dose: 100.0 mg/kg/injection, schedule: Q01DX001 (ip), vehicle: Klucel (hydroxypropylcellulose) (HPC)
[8] = dose: 200.0 mg/kg/injection, schedule: Q01DX001 (ip), vehicle: Klucel (hydroxypropylcellulose) (HPC)
[9] = dose: 400.0 mg/kg/injection, schedule: Q01DX001 (ip), vehicle: Klucel (hydroxypropylcellulose) (HPC)
[10] = dose: 25.0 mg/kg/injection, schedule: Q01DX009 (ip), vehicle: saline with Tween-80
[11] = dose: 50.0 mg/kg/injection, schedule: Q01DX009 (ip), vehicle: saline with Tween-80
[12] = dose: 100.0 mg/kg/injection, schedule: Q01DX001 (ip), vehicle: carboxymethylcellulose (CMC)
[13] = dose: 200.0 mg/kg/injection, schedule: Q01DX001 (ip), vehicle: carboxymethylcellulose (CMC)
[14] = dose: 400.0 mg/kg/injection, schedule: Q01DX001 (ip), vehicle: carboxymethylcellulose (CMC)
[15] = dose: 100.0 mg/kg/injection, schedule: Q01DX009 (ip), vehicle: Klucel (hydroxypropylcellulose) (HPC)
[16] = dose: 100.0 mg/kg/injection, schedule: Q04DX003 (ip), vehicle: Klucel (hydroxypropylcellulose) (HPC)
[17] = dose: 200.0 mg/kg/injection, schedule: Q01DX009 (ip), vehicle: Klucel (hydroxypropylcellulose) (HPC)
[18] = dose: 200.0 mg/kg/injection, schedule: Q04DX003 (ip), vehicle: Klucel (hydroxypropylcellulose) (HPC)
[19] = dose: 400.0 mg/kg/injection, schedule: Q01DX009 (ip), vehicle: Klucel (hydroxypropylcellulose) (HPC)
[20] = dose: 400.0 mg/kg/injection, schedule: Q04DX003 (ip), vehicle: Klucel (hydroxypropylcellulose) (HPC)
[21] = dose: 100.0 mg/kg/injection, schedule: Q04DX003 (ip), vehicle: saline
[22] = dose: 200.0 mg/kg/injection, schedule: Q04DX003 (ip), vehicle: saline
[23] = dose: 50.0 mg/kg/injection, schedule: Q01DX009 (ip), vehicle: saline
[24] = dose: 100.0 mg/kg/injection, schedule: Q01DX009 (ip), vehicle: saline

Measured: T/C

O=S(=O)([O-])NC1CCCCC1.O=S(=O)([O-])NC1CCCCC1.[Hg+2].[Hg+2].[Hg+2].[O-2].[O-2]
inactive: dose: 0.5 mg/kg/injection, schedule: Q01DX009 (ip), vehicle: saline with Tween-80 100 % of control | dose: 0.5 mg/kg/injection, schedule: Q04DX003 (ip), vehicle: saline sonified 97 % of control | dose: 1.0 mg/kg/injection, schedule: Q01DX009 (ip), vehicle: saline with Tween-80 94 % of control | dose: 1.0 mg/kg/injection, schedule: Q04DX003 (ip), vehicle: saline sonified 101 % of control | dose: 2.0 mg/kg/injection, schedule: Q01DX009 (ip), vehicle: saline with Tween-80 96 % of control | dose: 2.0 mg/kg/injection, schedule: Q04DX003 (ip), vehicle: saline sonified 94 % of control | dose: 4.0 mg/kg/injection, schedule: Q01DX009 (ip), vehicle: saline with Tween-80 93 % of control

COc1ccc(OC)c(NC(=O)c2ccccc2Cl)c1
inactive: [1] 93 % of control and 102 % of control | dose: 100.0 mg/kg/injection, schedule: Q04DX002 (ip), vehicle: saline with Tween-80 103 % of control and 111 % of control | [2] 95 % of control | [3] 94 % of control and 101 % of control | dose: 200.0 mg/kg/injection, schedule: Q04DX002 (ip), vehicle: saline with Tween-80 93 % of control and 100 % of control | [4] 94 % of control | [5] 96 % of control | dose: 400.0 mg/kg/injection, schedule: Q04DX002 (ip), vehicle: saline with Tween-80 103 % of control and 104 % of control | [6] 97 % of control

CCOC(=O)CC(=O)c1ccc(OC)cc1
inactive: [7] 101 % of control | [8] 106 % of control | [9] 107 % of control

NC(=S)N/N=C/c1ccc(-c2ccccc2)cc1
inactive: [10] 103 % of control | [11] 113 % of control | [12] 97 % of control | [1] 100 % of control | [13] 103 % of control | [14] 101 % of control

O=C1NC(=O)C2C(c3ccccc3)=NOC2N1 (configuration not stated)
inactive: [15] 103 % of control | [16] 97 % of control | [17] 103 % of control | [18] 90 % of control | [19] 98 % of control | [20] 97 % of control

COC(=O)C(=O)CC(=O)c1ccc(C)cc1
inactive: dose: 100.0 mg/kg/injection, schedule: Q04DX002 (ip), vehicle: Klucel (hydroxypropylcellulose) (HPC) 103 % of control | dose: 200.0 mg/kg/injection, schedule: Q04DX002 (ip), vehicle: Klucel (hydroxypropylcellulose) (HPC) 95 % of control | dose: 400.0 mg/kg/injection, schedule: Q04DX002 (ip), vehicle: Klucel (hydroxypropylcellulose) (HPC) 106 % of control

Cc1ccc(C(=O)c2ccccc2C(=O)O)cc1N
inactive: [1] 105 % of control | [2] 99 % of control | [3] 97 % of control | [4] 99 % of control | [5] 106 % of control | [6] 97 % of control

CCOC(=O)CNC(=O)C(O)C(O)C(O)C(O)CO (configuration not stated)
inactive: [21] 102 % of control | [22] 97 % of control | dose: 400.0 mg/kg/injection, schedule: Q04DX003 (ip), vehicle: saline 91 % of control

ClCOCCCCOCCl
inactive: [23] 114 % of control | [24] 87 % of control

CS(=O)CC(=O)c1ccc(C(=O)O)cc1 (configuration not stated)
inactive: dose: 100.0 mg/kg/injection, schedule: Q04DX003 (ip), vehicle: other 107 % of control | dose: 200.0 mg/kg/injection, schedule: Q04DX003 (ip), vehicle: other 98 % of control | dose: 400.0 mg/kg/injection, schedule: Q04DX003 (ip), vehicle: other 101 % of control

COC(=O)CCC(=O)c1cc(OC)c2cc3ccccc3cc2c1OC
inactive: dose: 100.0 mg/kg/injection, schedule: Q01DX001 (ip), vehicle: other 96 % of control | dose: 200.0 mg/kg/injection, schedule: Q01DX001 (ip), vehicle: other 96 % of control | dose: 400.0 mg/kg/injection, schedule: Q01DX001 (ip), vehicle: other 100 % of control

CCCCCCCCCCCCCCCCS(=O)(=O)N/N=C(/c1cccc(N)c1)N1CCCCC1
inactive: dose: 50.0 mg/kg/injection, schedule: Q04DX003 (ip), vehicle: saline with Tween-80 87 % of control | [2] 90 % of control | [6] 88 % of control

CN(C)CCNCC(=O)CC(O)(C(F)(F)F)C(F)(F)F
inactive: [7] 96 % of control | [16] 108 % of control | [8] 109 % of control | [18] 97 % of control | [9] 104 % of control | [20] 113 % of control

Cc1cccc(C)c1NC(=S)N(CCC#N)Cc1ccccc1
inactive: [15] 107 % of control | [17] 94 % of control | [19] 96 % of control

O=C(CCl)Oc1cccc([N+](=O)[O-])c1
inactive: [10] 92 % of control | [11] 112 % of control | [1] 107 % of control | [2] 91 % of control | [4] 96 % of control | [6] 94 % of control

Nc1ccc(S(=O)[O-])cc1.Nc1ccc(S(=O)[O-])cc1.[Zn+2]
inactive: dose: 75.0 mg/kg/injection, schedule: Q01DX001 (ip), vehicle: saline 95 % of control | dose: 150.0 mg/kg/injection, schedule: Q01DX001 (ip), vehicle: saline 96 % of control | dose: 300.0 mg/kg/injection, schedule: Q01DX001 (ip), vehicle: saline 102 % of control

CC1(C)C=CC(=NO)C=C1
inactive: [15] 96 % of control | [17] 97 % of control

CN(N=O)C(=O)NC(=O)NCCCl
inactive: dose: 4.5 mg/kg/injection, schedule: Q01DX001 (ip), vehicle: carboxymethylcellulose (CMC) 118 % of control | dose: 9.0 mg/kg/injection, schedule: Q01DX001 (ip), vehicle: carboxymethylcellulose (CMC) 115 % of control | dose: 26.0 mg/kg/injection, schedule: Q01DX001 (ip), vehicle: carboxymethylcellulose (CMC) 124 % of control

CC(C)CC(CC(C)C)=NO
inactive: [12] 104 % of control | [13] 101 % of control | [14] 103 % of control

C[C@H]1[C@H](O)[C@H]2[C@@H](CCC3=CC(=O)CC[C@@]32C)[C@@H]2CC[C@H](O)[C@@]12C
inactive: dose: 50.0 mg/kg/injection, schedule: Q01DX001 (sc), vehicle: steriod suspending solution 102 % of control | dose: 100.0 mg/kg/injection, schedule: Q01DX001 (sc), vehicle: steriod suspending solution 102 % of control | dose: 200.0 mg/kg/injection, schedule: Q01DX001 (sc), vehicle: steriod suspending solution 102 % of control | dose: 400.0 mg/kg/injection, schedule: Q01DX001 (sc), vehicle: steriod suspending solution 96 % of control

CCCC(=O)OC1=CC(=O)c2ccccc2C1=O
inactive: dose: 75.0 mg/kg/injection, schedule: Q01DX001 (ip), vehicle: other 94 % of control | dose: 150.0 mg/kg/injection, schedule: Q01DX001 (ip), vehicle: other 89 % of control

C#CC(C)OCC(O)CCl (configuration not stated)
inactive: dose: 25.0 mg/kg/injection, schedule: Q01DX009 (ip), vehicle: saline 97 % of control | [23] 105 % of control | [24] 103 % of control and 89 % of control | dose: 100.0 mg/kg/injection, schedule: Q04DX003 (ip), vehicle: saline sonified 97 % of control | dose: 200.0 mg/kg/injection, schedule: Q04DX003 (ip), vehicle: saline sonified 87 % of control | dose: 400.0 mg/kg/injection, schedule: Q04DX003 (ip), vehicle: saline sonified 103 % of control

N=C(N)SCC(O)c1ccccc1 (configuration not stated)
inactive: [15] 104 % of control | [17] 95 % of control

Oc1cc(O)c2c(c1)OC(c1ccc(O)c(O)c1)C(O)C2c1c(O)cc(O)c2c1OC(c1ccc(O)c(O)c1)C(O)C2 (configuration not stated)
inactive: [1] 101 % of control | [3] 97 % of control | [5] 93 % of control

CC(C)(C)NC(=O)CCC(CC(=O)NC(C)(C)C)S(=O)(=O)O (configuration not stated)
inactive: [23] 97 % of control | [24] 97 % of control | [21] 98 % of control | dose: 200.0 mg/kg/injection, schedule: Q01DX009 (ip), vehicle: saline 90 % of control | [22] 95 % of control
